This note sets out measurements from US6967196B1, “Sulfonamide compounds and uses thereof” (Bristol-Myers Squibb Company, priority 1999, dated 2005).

Structures can show the parent of a compound that is named as a salt.

In one assay the test system is amyloid β production in transfected H4 (human neuroglioma) cells stably expressing APP constructs. Description: In vitro cell-based assay of inhibitors of amyloid β production (ELISA). To be noted: Homo sapiens, 16 h, transfected H4 cells expressing APP, approximately 16 hours incubation, amyloid β in medium by ELISA; read-out: ACTIVITY (IC50, inhibition of amyloid β production). Put shortly: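 Test agents are screened at 10-100 μM for about 16 hours on cells stably expressing wild-type or variant APP. Secreted Aβ is measured by ELISA and compared with control-treated cells.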
A general note: An ELISA detects its analyte on a solid surface through an enzyme-linked reagent.
As to `C[C@H](CCCOC(=O)NCCCn1ccnc1)N(c1cc(Cl)ccc1CO)S(=O)(=O)c1ccc(Cl)cc1` [Example 1290], the IC50 is above 500 nM. On the same count and under the same terms, next, `C[C@H](C(=O)NCCN1CCOCC1)N(c1cc(Cl)ccc1F)S(=O)(=O)c1ccc(Cl)cc1` [Example 1301]: above 500 nM; `C[C@H](CCCOC(=O)N1CCCC1)N(c1cc(Cl)ccc1CO)S(=O)(=O)c1ccc(Cl)cc1` [Example 1298]: at most 25 nM. On the same count and under the same terms, the value for `C[C@H](C(=O)NCC(C)(C)CO)N(c1cc(Cl)ccc1F)S(=O)(=O)c1ccc(Cl)cc1` [Example 1328] was 100 to 500 nM.

Still in this assay, the particulars now being: Homo sapiens, 16 h, transfected H4 cells stably expressing APP constructs; approximately 16 hours incubation; amyloid β in medium by ELISA; read-out: ACTIVITY (IC50, inhibition of amyloid β production).
Take `C[C@H](CCCS(=O)(=O)N(C)C)N(c1cc(Cl)ccc1F)S(=O)(=O)c1ccc(Cl)cc1` [Example 1202, 4-chloro-N-(5-chloro-2-fluorophenyl)-N-[4-[(dimethylamino)sulfonyl]-1(R)-methylbutyl]benzenesulfonamide]: the IC50 is at most 25 nM. In the case of `C[C@H](COC(=O)N1CCCC1)N(c1cc(Cl)ccc1F)S(=O)(=O)c1ccc(Cl)cc1` [Example 1243, 4-Chloro-N-(2-fluoro-5-chlorophenyl)-N-[2-[[[pyrrolidin-1-yl]carbonyl]oxy]-(R)-1-methylethyl]benzenesulfonamide], the IC50 was at most 25 nM.

Still in this assay, the particulars now being: Homo sapiens, 16 h, transfected H4 cells stably expressing APP; approximately 16 hours incubation; amyloid β in medium by ELISA; read-out: ACTIVITY (IC50, inhibition of amyloid β production).
`COc1cc(C(=O)N2CCCCC2CCOc2ccccc2CN(c2cc(F)ccc2F)S(=O)(=O)c2ccc(Cl)cc2)cc(OC)c1OC` (stereo not shown) [Example 938, 4-chloro-N-(2,5-difluorophenyl)-N-(2-{2-[1-(3,4,5-trimethoxybenzoyl)-2-piperidinyl]ethoxy}benzyl)benzenesulfonamide]: the IC50 was above 500 nM.

In the case of `C[C@H](c1ccccc1OCCCN1CCCCC1)N(c1cc(Cl)ccc1CO)S(=O)(=O)c1ccc(Cl)cc1` [Example 1062, 4-chloro-N-[5-chloro-2-(hydroxymethyl)phenyl]-N-((1R)-1-{2-[3-(1-piperidinyl)propoxy]phenyl}ethyl)benzenesulfonamide hydrochloride], the IC50 was above 500 nM. On the same count and under the same terms, the value for `O=S(=O)(c1ccc(Cl)cc1)N(Cc1cc(Cl)ccc1OCCCN1CCC(O)CC1)c1ccccc1` [Example 1011, 4-chloro-N-{5-chloro-2-[3-(4-hydroxy-1-piperidinyl)propoxy]benzyl}-N-phenylbenzenesulfonamide hydrochloride] was above 500 nM.

The same assay, now with this note: Table B; transfected H4 cells stably expressing APP; approximately 16 hours incubation; amyloid β in medium by ELISA; read-out: ACTIVITY (inhibitory concentration IC50, inhibition of amyloid β production).
`C[C@H](CCNc1c(NCC[C@@H](C)N(c2cc(F)ccc2F)S(=O)(=O)c2ccc(Cl)cc2)c(=O)c1=O)N(c1cc(F)ccc1F)S(=O)(=O)c1ccc(Cl)cc1` [Example 132, 4-Chloro-N-(2,5-difluorophenyl)-N-[3-[2-[4-chloro-N-(2,5-difluorophenyl)-N-[(3-amino)-1(R)-methylpropyl]benzenesulfonamide]-3,4-dioxo-1-cyclobutenyl]amine-1(R)-methylpropyl]benzenesulfonamide]: the IC50 was at most 25 nM.

Staying with this assay, now noted: read-out: ACTIVITY (inhibitory concentration IC50, inhibition of amyloid β production).
For `O=S(=O)(c1ccc(Cl)cc1)N(Cc1ccccc1OCCCN1CCCCC1)c1cccc(Br)c1` [Example 237, N-(3-bromophenyl)-4-chloro-N-{2-[3-(1-piperidinyl)propoxy]benzyl}benzenesulfonamide Hydrochloride], the IC50 was in the range of 25 to 50 nM.

Still in this assay, the particulars now being: transfected H4 cells stably expressing APP constructs; approximately 16 hours incubation; amyloid β in medium by ELISA; read-out: ACTIVITY (IC50, inhibition of amyloid β production).
Regarding `C[C@H](CCN1CCCC(S(C)(=O)=O)C1)N(c1cc(Cl)ccc1Cl)S(=O)(=O)c1ccc(Cl)cc1` (stereo partly drawn) [Example 1118, 4-chloro-N-(2,5-dichlorophenyl)-N-[3-[(3-methylsulfonyl)-1-piperidinyl]-1(R)-methylpropyl]benzenesulfonamide], the IC50 lay in the range of 25 to 50 nM.

Take `CC[S+]([O-])CCC[C@@H](C)N(c1cc(Cl)ccc1Cl)S(=O)(=O)c1ccc(Cl)cc1` (stereo partly drawn) [Example 1172, 4-chloro-N-[2,5-dichlorophenyl]-N-[1(R)-methyl-(4-ethylsulfinyl)butyl]benzenesulfonamide]: the IC50 is at most 25 nM.

Still in this assay, the particulars now being: transfected H4 cells stably expressing APP; approx. 16 h incubation; amyloid β in medium by ELISA; read-out: ACTIVITY (IC50, inhibition of amyloid β production).
For “2-((1R)-1-{[(4-chlorophenyl)sulfonyl]-2,5-difluoroanilino}ethyl)-5-fluorobenzyl 2-phenylethylcarbamate [Example 640]”, the IC50 lay within 100 to 500 nM. For the compound “N-{3-[2-(1-{[(4-chlorophenyl)sulfonyl]-2,5-difluoroanilino}ethyl)phenoxy]propyl}-2,6-difluoro-N-methylbenzamide [Example 755]”, the IC50 was in the range of 100 to 500 nM. “2-[2-((1R)-1-{[(4-chlorophenyl)sulfonyl]-2,5-difluoroanilino}ethyl)phenyl]ethyl 3,4-difluorobenzylcarbamate [Example 726]”: the IC50 fell in the range of 100 to 500 nM. Still for that read-out and setting: the value for “N-{3-[2-(1-{[(4-chlorophenyl)sulfonyl]-2,5-difluoroanilino}ethyl)phenoxy]propyl}-3,5-dimethoxy-N-methylbenzamide [Example 802]” was 100 to 500 nM; that for “N-{3-[2-(1-{[(4-chlorophenyl)sulfonyl]-2,5-difluoroanilino}methyl)phenoxy]propyl}-N-methyl-2-phenylcyclopropanecarboxamide [Example 759]” was 100 to 500 nM.

Staying with this assay, now noted: transfected H4 cells stably expressing APP; approximately 16 hours incubation; amyloid β in medium by ELISA; Table B; read-out: ACTIVITY (IC50, inhibition of amyloid β production).
Regarding `C[C@H](c1ccc(F)cc1CCS(=O)(=O)CCC(=O)O)N(c1cc(F)ccc1F)S(=O)(=O)c1ccc(Cl)cc1` [Example 475, 3-({2-[2-((1R)-1-{[(4-chloro-phenyl)sulfonyl]-2,5-difluoroanilino}ethyl)-5-fluorophenyl]ethyl}sulfonyl)propanoic Acid], the IC50 fell in the range of 100 to 500 nM. Still for that read-out and setting: next, `CN(CCCOc1ccccc1CN(c1cc(F)ccc1F)S(=O)(=O)c1ccc(Cl)cc1)C(=O)CCCCCN` [Example 366, 6-Amino-N-{3-[2-({[(4-chlorophenyl)sulfonyl]-2,5-difluoroanilino}methyl)phenoxy]propyl]-N-methylhexanamide Hydrochloride]: 50 to 100 nM; “3-[2-((1R)-1-{[(4-chlorophenyl)sulfonyl]-2,5-difluoroanilino}ethyl)phenyl]-N-(2,5-difluorobenzyl)propanamide [Example 383]”: 50 to 100 nM. `COC(=O)[C@H](CSCCCc1cc(F)ccc1[C@@H](C)N(c1cc(F)ccc1F)S(=O)(=O)c1ccc(Cl)cc1)NC(=O)OC(C)(C)C` [Example 485]: the IC50 was in the range of 100 to 500 nM. The same measure, in the same setting: next, `O=S1(=O)c2cccc3cccc(c23)N1Cc1ccccc1OCCCN1CCCCC1` [Example 269, 2-{2-[3-(1-piperidinyl)propoxy]benzyl}-2H-naphtho[1,8-cd]isothiazole 1,1-Dioxide Hydrochloride]: 25 to 50 nM.

Staying with this assay, now noted: transfected H4 cells stably expressing APP; approximately 16 hours incubation; amyloid β in medium by ELISA; hydrochloride; read-out: ACTIVITY (IC50, inhibition of amyloid β production).
Consider `C[C@@H](c1ccccc1OCCCn1ccnc1)N(c1cc(F)ccc1F)S(=O)(=O)c1ccc(Cl)cc1` [Example 1048, 4-chloro-N-(2,5-difluorophenyl)-N-((1S)-1-{2-[3-(1H-imidazol-1-yl)propoxy]phenyl}ethyl)benzenesulfonamide hydrochloride], for which the IC50 is above 500 nM.

The same assay, now with this note: transfected H4 cells stably expressing APP; approximately 16 hours incubation; amyloid β in medium by ELISA; read-out: ACTIVITY (IC50, inhibition of amyloid β production).
“2,4-dichloro-N-{3-[2-(1-{[(4-chlorophenyl)sulfonyl]-2,5-difluoroanilino}ethyl)phenoxy]propyl}-N-methylbenzamide [Example 839]”: the IC50 fell in the range of 100 to 500 nM. Still for that read-out and setting: the value for “N-{3-[2-({[(4-chlorophenyl)sulfonyl]-2,5-difluoroanilino}methyl)phenoxy]propyl}-N-methyl-4-(trifluoromethoxy)benzamide [Example 873]” was 100 to 500 nM; that for “5-[2-((1R)-1-{[(4-chlorophenyl)sulfonyl]-2,5-difluoroanilino}ethyl)-5-fluorophenyl]butanoic acid [Example 1070]” was above 500 nM. On the same count and under the same terms, the value for `O=S(=O)(c1ccc(Cl)cc1)N(Cc1ccccc1OCCCN1CCCCC1)[C@H]1CC2CCC1C2` (stereo partly drawn) [Example 969, N-{(2S)-bicyclo[2.2.1]hept-2-yl]-4-chloro-N-{2-[3-(1-piperidinyl)propoxy]benzyl}benzenesulfonamide hydrochloride] was above 500 nM; that for `O=S(=O)(c1ccc(F)cc1)n1c(-c2ccccc2OCCCN2CCCCC2)cc2ccccc21` [Example 1032, 2-{1-[(4-flurophenyl}sulfonyl]-1H-indol-2-yl}phenyl 3-(1-piperidinyl)propyl ether trifluoroacetate] was above 500 nM; that for `CN(CCCOc1ccccc1CN(c1cc(F)ccc1F)S(=O)(=O)c1ccc(Cl)cc1)C(=O)/C=C\c1ccccc1` [Example 841, (2Z)-N-{3-[2-({[(4-chlorophenyl)sulfonyl]-2,5-difluoroanilino}methyl)phenoxy]propyl}-N methyl-3-phenyl-2-propenamide] was 100 to 500 nM. Still for that read-out and setting: next, `O=S(=O)(c1ccc(Cl)cc1)N(Cc1ccccc1OCc1ccncc1)c1ccccc1` [Example 1030, 4-chloro-N-phenyl-N-[2-(4-pyrdinylmethoxy)benzyl]benzenesulfonamide hydrochloride]: above 500 nM.
